The test system of data set [1] is Karpas299. The data set can be described thus: Cell proliferation inhibition, ALCL line Karpas299. In kind it is cell-based. Conditions: Homo sapiens, KARPAS-299; Table 2, cell line; read-out: IC50 ALCL (ALK) Karpas299. From the text:
The IL-3-dependent lymphoid cell line BaF3 or BaF3 rendered IL-3-independent by engineered expression of NPM-ALK were used in parallel to test each candidate inhibitor. Control wells contained DMSO solvent without test compound. Specific inhibition of ALK signaling is indicated in the assay by impairment of NPM-ALK-expressing BaF3 cell growth without alterations in the growth of parental BaF3. This colorimetric assay of cell proliferation and viability is based upon reduction of the yellow monotetrazolium salt XTT to a water-soluble orange formazan dye, a reaction catalyzed by mitochondrial dehydrogenases in living cells only (Cell Proliferation Kit II, Cat. #1 465 015, Roche Biochemicals). In addition to testing compounds for their ability to impair the growth of BaF3 cells engineered to express NPM-ALK, the NPM-ALK-positive human lymphoma cell line Karpas-299 (Deutsche Sammlung von Mikroorganismen and Zellkulturen GmbH (DSMZ) no. ACC 31), the human BCR-ABL-positive chronic myeloid leukemia cell line K562 (American Type Culture Collection (ATCC) no. CCL-243), and the human T-cell leukemia line Jurkat (DSMZ no. ACC 282) were tested in these assays.
Each compound stock in 100% DMSO was first diluted using 8% DMSO/culture medium to produce a working stock of 250 μM compound. This working stock was then used to perform serial 1:1 dilutions (i.e., 125 μM, 62.5 μM, 31.25 μM, 15.625 μM, 7.8125 μM, and 3.90625 μM) using DMSO-free culture medium. Twenty (20) μL of each of these dilutions was then added to the cells (2×10^4 cells in 80 μL culture medium per 96-well) to obtain the final test compound concentrations (i.e., 25 μM, 12.5 μM, 6.25 μM, 3.125 μM, 1.5625 μM, and 0.78125 μM).
(§1) Cell proliferation inhibition assays were run for compound (II) with the five target NPM-ALK-dependent ALCL cell lines (Karpas 299, SuDHL-1, JB6, SupM2, UConn) and 12 unrelated cell lines (HEK293, CHO-K1, MCF7, HepG2, H292, H520, H1581, H596, H522, CHA-GO-K1, UMC-11, SK-MES1). […] The pronounced target cell-killing effect is also observed (molecular mechanisms to be determined).

Data set [2] concerns JB6. As to the kind of experiment: Cell proliferation inhibition, ALCL line JB6. In kind it is cell-based. Conditions: Table 2, cell line, read-out: IC50 ALCL (ALK) JB6.
Source text: as §1

The target of data set [3] is T1, IGF1R (Homo sapiens, UniProt P08069).
T1 construct: 6×His- or GST-tagged kinase domain fragments of the corresponding RTKs expressed in baculovirus system; host or cells: baculovirus system
T1 sequence (P08069 999-1274 limits assumed): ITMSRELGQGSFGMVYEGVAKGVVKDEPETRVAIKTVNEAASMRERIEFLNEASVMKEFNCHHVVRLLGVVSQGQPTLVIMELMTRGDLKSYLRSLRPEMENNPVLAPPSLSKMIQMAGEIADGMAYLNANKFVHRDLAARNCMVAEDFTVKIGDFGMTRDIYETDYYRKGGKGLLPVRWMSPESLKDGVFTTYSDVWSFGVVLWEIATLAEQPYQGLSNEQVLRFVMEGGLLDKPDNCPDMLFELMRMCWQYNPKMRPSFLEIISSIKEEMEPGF
As to the kind of experiment: IGF1R kinase assay. Conditions: Table 2; read-out: Enzymatic IGF1R IC50. Format: biochemical. The method in brief: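 The AlphaScreen PT66 format of the NPM-ALK assay was applied with minor modifications to commercial recombinant His/GST-tagged kinase domains. Compound (0.078125–40 μM) was incubated 30 min at RT with 10 μM ATP and biotinylated poly-GT in Tris pH 7.5/MgCl2/MnCl2/DTT buffer, then beads 60 min. Read at 520–680 nm; IC50 and Ki derived.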

Data set [4] concerns H929. As to the kind of experiment: Cell line IC50, MM (IGF1R) H929. Format: cell-based. Conditions: Homo sapiens, NCI-H929; Table 2, cell line.
Data set [5] concerns UConn. As to the kind of experiment: Cell proliferation inhibition, ALCL line UConn. Conditions: Table 2, cell line; read-out: IC50 ALCL (ALK) Uconn. In kind it is cell-based.
Source text: as §1

Data set [6] concerns WI38. The data set can be described thus: Cell line IC50, control WI38. Format: cell-based. Conditions: Homo sapiens, WI-38; Table 2, cell line.
Data set [7] concerns the target ALK (Homo sapiens, UniProt Q9UM73). The data set can be described thus: ALK kinase assay (Kinase-Glo / AlphaScreen, purified NPM-ALK).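 Further: recombinant baculovirus-expressed ALK kinase domain, activity read either as leftover ATP by Kinase-Glo luminescence or as poly(Glu-Tyr) phosphorylation by anti-phosphotyrosine AlphaScreen proximity signal.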 In kind it is biochemical. Details: fused to the complete intracytoplasmic portion of ALK containing the functional tyrosine kinase domain; 6xHis; made in house; host or cells: insect cells; the other entry of the earlier key: NPM1 (P06748, Nucleophosmin). Conditions: Table 2; read-out: Enzymatic ALK IC50.

In data set [8] the target is hERG (Homo sapiens, UniProt Q12809). As to the kind of experiment: hERG Inhibition (Table 6E). Details: expressed in transfected cells; unit not given here. In kind it is cell-based. The procedure: Compound (II) was initially tested at 1 μM concentration using a standard patch clamp protocol (Cerep ADMET Study 13170). The hERG channel was expressed in a human embryonic kidney (HEK293) cell line that lacks endogenous hERG channels. […] We have retested compound (II) in hERG assay in a range of lower concentrations to estimate IC50 of hERG inhibition more precisely (Qpatch 16 automated whole-cell patch clamp protocol in CHO-K1 cell line stably expressing hERG, Cerep hERG Study 13292). […] This kind of potency in hERG inhibition should not represent a significant clinical problem since the high degree of hERG inhibition would occur only at the compound concentrations above the expected therapeutic levels.
Sequence of hERG (Q12809 whole entry): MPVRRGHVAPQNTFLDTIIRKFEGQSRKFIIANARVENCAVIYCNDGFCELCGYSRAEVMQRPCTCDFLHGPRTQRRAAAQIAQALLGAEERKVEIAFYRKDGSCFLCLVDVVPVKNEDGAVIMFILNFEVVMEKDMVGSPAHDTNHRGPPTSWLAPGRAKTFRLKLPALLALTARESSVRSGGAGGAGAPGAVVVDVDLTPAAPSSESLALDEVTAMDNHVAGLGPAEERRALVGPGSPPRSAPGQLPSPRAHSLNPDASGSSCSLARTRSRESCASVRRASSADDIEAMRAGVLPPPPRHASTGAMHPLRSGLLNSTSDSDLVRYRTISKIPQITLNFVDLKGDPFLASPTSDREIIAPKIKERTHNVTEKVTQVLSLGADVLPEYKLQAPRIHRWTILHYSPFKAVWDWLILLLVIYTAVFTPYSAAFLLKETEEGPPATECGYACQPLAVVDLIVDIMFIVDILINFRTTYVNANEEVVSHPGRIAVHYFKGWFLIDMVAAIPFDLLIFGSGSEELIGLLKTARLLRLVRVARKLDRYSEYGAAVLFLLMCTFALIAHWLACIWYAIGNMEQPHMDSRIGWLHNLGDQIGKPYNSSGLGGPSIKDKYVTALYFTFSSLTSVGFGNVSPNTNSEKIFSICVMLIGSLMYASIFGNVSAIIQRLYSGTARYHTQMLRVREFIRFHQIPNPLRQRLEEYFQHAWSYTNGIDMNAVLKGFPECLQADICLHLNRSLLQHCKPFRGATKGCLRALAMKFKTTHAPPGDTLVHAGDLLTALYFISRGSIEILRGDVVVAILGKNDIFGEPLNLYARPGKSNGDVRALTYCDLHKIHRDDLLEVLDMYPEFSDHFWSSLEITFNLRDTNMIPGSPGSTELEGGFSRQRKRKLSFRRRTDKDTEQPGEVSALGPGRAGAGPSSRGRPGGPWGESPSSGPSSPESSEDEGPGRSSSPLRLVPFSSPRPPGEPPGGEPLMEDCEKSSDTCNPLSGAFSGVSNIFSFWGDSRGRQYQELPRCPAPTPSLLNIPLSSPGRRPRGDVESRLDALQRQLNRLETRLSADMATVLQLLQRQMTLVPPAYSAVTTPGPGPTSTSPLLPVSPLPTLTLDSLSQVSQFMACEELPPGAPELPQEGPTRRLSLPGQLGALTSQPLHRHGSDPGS

Data set [9] is described as follows: Aqueous Solubility (PBS, pH 7.4). Format: physicochemical. Conditions: pH 7.4, 2.0E−04 M; for solubility: pH 7.4, PBS.

In brackets after ≈: the same amount, converted by molar mass. Read-outs that look alike come from different tables or passages of the source.

Sequence of ALK (Q9UM73 with tags, fused parts or gaps): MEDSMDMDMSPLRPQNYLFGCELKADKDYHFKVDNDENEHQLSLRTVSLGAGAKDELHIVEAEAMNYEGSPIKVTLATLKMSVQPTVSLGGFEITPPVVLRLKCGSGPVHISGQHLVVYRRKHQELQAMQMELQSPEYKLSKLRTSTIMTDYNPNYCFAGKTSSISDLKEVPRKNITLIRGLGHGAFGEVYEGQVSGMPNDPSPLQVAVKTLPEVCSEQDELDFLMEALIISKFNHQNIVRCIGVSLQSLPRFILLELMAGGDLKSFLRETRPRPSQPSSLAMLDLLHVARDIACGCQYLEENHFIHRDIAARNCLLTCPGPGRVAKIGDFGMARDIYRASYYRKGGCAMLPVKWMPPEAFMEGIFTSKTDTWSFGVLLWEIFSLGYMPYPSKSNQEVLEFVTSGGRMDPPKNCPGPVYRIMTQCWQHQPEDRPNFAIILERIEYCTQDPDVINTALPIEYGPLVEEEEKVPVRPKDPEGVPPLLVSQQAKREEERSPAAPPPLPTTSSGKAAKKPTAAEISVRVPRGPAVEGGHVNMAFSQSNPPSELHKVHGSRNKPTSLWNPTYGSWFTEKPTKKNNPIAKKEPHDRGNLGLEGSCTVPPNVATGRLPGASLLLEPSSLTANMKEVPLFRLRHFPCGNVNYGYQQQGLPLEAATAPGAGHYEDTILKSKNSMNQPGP

Regarding `Cc1ccc(F)cc1C[C@H](C)Nc1cc[nH]c(=O)c1-c1nc2cc3c(cc2[nH]1)C(=O)N(CCN1CCCC1)C3` [drawing 350], the half-inhibitory concentration (IC50) in data set [1] is below 10 nM; in [2], below 10 nM; in [3], 100 to 250 nM; in data set [4], 250 to 1000 nM; in [5], 10 to 100 nM; in data set [6] it was above 1000 nM. In addition, the IC50 in data set [7] was below 10 nM.
Regarding `Cc1ccc(F)cc1C[C@H](C)Nc1cc[nH]c(=O)c1-c1nc2cc3c(cc2[nH]1)CN(CCN(C)C)C3=O` [drawing 365], the “hERG Inhibition” value in data set [8] (25) is 5.8; in data set [8] (100) it was 8.8; in [8] (1000) it was 6.8; in [8] (column head 500), 11.1; in data set [8] (column head 3000) it was 27.1; in data set [8] (column head 5000), 50.0.
In the case of `Cc1ccc(F)cc1C[C@H](C)Nc1cc[nH]c(=O)c1-c1nc2cc3c(cc2[nH]1)CN(CCN1CCC[C@H]1C)C3=O` [drawing 354], the IC50 in [1] was 10 to 100 nM; in [2] it was 10 to 100 nM; in data set [3] it was above 1000 nM; in data set [4] it was 250 to 1000 nM; in data set [5], 10 to 100 nM; in [6], above 1000 nM. Further, in data set [7], the IC50 was 10 to 100 nM.
`C[C@@H](Cc1cc(F)ccc1Br)Nc1cc[nH]c(=O)c1-c1nc2cc3c(cc2[nH]1)CN(CCN1CCCC1)C3=O` [drawing 359]: the IC50 was 10 to 100 nM in data set [1]; 10 to 100 nM in data set [2]; 250 to 1000 nM in data set [3]; 250 to 1000 nM in [4]; 100 to 250 nM in data set [5]; above 1000 nM in [6]. In addition, the IC50 in data set [7] was 10 to 100 nM.
As to `C[C@@H](Cc1cc(F)cc(F)c1F)Nc1cc[nH]c(=O)c1-c1nc2cc3c(cc2[nH]1)CN(CCN1CCCC1)C3=O` [drawing 358], the IC50 is 10 to 100 nM in [1]; 10 to 100 nM in data set [2]; 250 to 1000 nM in [3]; 250 to 1000 nM in data set [4]; 10 to 100 nM in data set [5]; above 1000 nM in data set [6]. In addition, in data set [7], the IC50 fell in the range of 10 to 100 nM.
With `Cc1ccc(F)cc1C[C@H](C)Nc1cc[nH]c(=O)c1-c1nc2c(C)c3c(cc2[nH]1)CN(CCN1CCCC1)C3=O` [drawing 351], the IC50 in data set [1] is below 10 nM; in data set [2], below 10 nM; in data set [3] it was 100 to 250 nM; in data set [4], 250 to 1000 nM; in data set [5], 10 to 100 nM; in data set [6] it was above 1000 nM. For the same compound, the IC50 in data set [7] is below 10 nM.
Turning to `CNCCN1Cc2cc3[nH]c(-c4c(N[C@@H](C)Cc5cc(F)ccc5C)cc[nH]c4=O)nc3cc2C1=O` [drawing 355], the IC50 was 10 to 100 nM in data set [1]; below 10 nM in data set [2]; 10 to 100 nM in [3]; 250 to 1000 nM in data set [4]; 10 to 100 nM in [5]; above 1000 nM in data set [6]. The IC50 in data set [7] was below 10 nM.
`Cc1ccc(F)cc1C[C@H](C)Nc1cc[nH]c(=O)c1-c1nc2cc3c(cc2[nH]1)CN(CCN(C)C)C3=O` [drawing 357]: the half-inhibitory concentration (IC50) in data set [1] was 10 to 100 nM; in [2] it was 10 to 100 nM; in data set [3], 100 to 250 nM; in data set [4], 250 to 1000 nM; in data set [5], 10 to 100 nM; in data set [6], above 1000 nM. Moreover, in data set [7], the IC50 was below 10 nM.
With `C[C@@H](Cc1cc(F)cc(F)c1F)Nc1cc[nH]c(=O)c1-c1nc2cc3c(cc2[nH]1)CN(CCN(C)C)C3=O` [drawing 367], the “hERG Inhibition” value in data set [8] (25) amounted to 6.60; in [8] (100) it was 10.20; in [8] (column head 500) it was 13.10.
As to `C[C@@H]1CCCN1CCN1Cc2cc3[nH]c(-c4c(N[C@@H](C)Cc5cc(F)cc(F)c5F)cc[nH]c4=O)nc3cc2C1=O` [drawing 353], the half-inhibitory concentration (IC50) in [1] is below 10 nM; in [2], below 10 nM; in [3], above 1000 nM; in [4], 250 to 1000 nM; in [5], 10 to 100 nM; in [6], above 1000 nM. The IC50 in data set [7] was below 10 nM.
Turning to `C[C@@H](Cc1c(F)c(F)cc(F)c1F)Nc1cc[nH]c(=O)c1-c1nc2cc3c(cc2[nH]1)CN(CCN1CCCC1)C3=O` [drawing 352], the IC50 is below 10 nM in data set [1]; below 10 nM in data set [2]; above 1000 nM in [3]; 250 to 1000 nM in data set [4]; 10 to 100 nM in data set [5]; above 1000 nM in [6]. Besides, the IC50 in [7] was below 10 nM.
`C[C@@H](Cc1cc(F)cc(F)c1F)Nc1cc[nH]c(=O)c1-c1nc2cc3c(cc2[nH]1)CN(CCN1CCCC1)C3=O` [drawing 366]: the “hERG Inhibition” value in data set [8] (25) turned out to be 6.00; in data set [8] (100), 9.7; in data set [8] (1000) it was 7.30; in [8] (column head 500) it was 7.10; in data set [8] (column head 3000) it was 33.20; in data set [8] (column head 5000), 57.80.
For the compound `CC(=O)N1CCN(c2ccc(OCC3COC(Cn4ccnc4)(c4ccc(Cl)cc4Cl)O3)cc2)CC1` (centres unmarked) [Ketoconazole, ketoconazole, reference compound], the “Solubility 1st/2nd” value in data set [9] (individual data) was found to be 109.58 μm. The solubility came out at 108 µM (≈ 57.5 µg/mL) in data set [9] (Tables 9C, 9D, read-out: Solubility Mean) and 107 µM (≈ 56.7 µg/mL) in data set [9] (individual data, read-out: Solubility 1st/2nd).
Regarding `Cc1ccc(F)cc1C[C@H](C)Nc1cc[nH]c(=O)c1-c1nc2cc3c(cc2[nH]1)C(=O)N(CCN1CCCC1)C3` [drawing 364], the “hERG Inhibition” value in data set [8] (25) came to 22.5; in [8] (100) it was 28; in data set [8] (1000) it was 50.4; in data set [8] (column head 500), 38.5.
On to `C[C@@H](Cc1cc(F)cc(F)c1F)Nc1cc[nH]c(=O)c1-c1nc2cc3c(cc2[nH]1)CN(CCN(C)C)C3=O` [drawing 356], for which the IC50 was 10 to 100 nM in data set [1]; 10 to 100 nM in data set [2]; 100 to 250 nM in data set [3]; 250 to 1000 nM in data set [4]; 10 to 100 nM in data set [5]; above 1000 nM in [6]. Further, the IC50 in [7] was below 10 nM.

Source of the values: patent US9249147B2, “Tyrosine kinase inhibitors” (CHEMBRIDGE CORPORATION, priority 2008, dated 2016).
